{
  "source": "patent US20210177889A1",
  "about": "“GASEOUS PHARMACEUTICAL COMPOSITION FOR HYPERTENSION THERAPY” (KEIO UNIVERSITY, priority 2019, published 2021)",
  "key": {"[1]": {"test_system": "hypertension attributed to 5/6 nephrectomy", "test": "Prophylactic effect of one hour daily H2 inhalation after 5/6 nephrectomy, invasive arterial blood pressure at 4 weeks", "assay_type": "in vivo, Lewis rat", "conditions": "four weeks after 5/6 nephrectomy; 1.3% H2 inhaled one hour daily from immediately after nephrectomy; N=3; mean±SE; P=0.02 vs control gas (134.1±3.3)", "experimental": "Invasive blood pressure measurement was performed 4 weeks after gas inhalation. An arterial catheter (PE50, Natsume) was inserted under isoflurane inhalation into the left femoral artery, and arterial blood pressure was measured (DX-360, Nihon Kohden). In order to elicit renal hypertension, 5/6 nephrectomy was carried out with slight modification to previously described methods (Nephrology (Carlton) 19, 552-561; 10.1111/nep.12279 (2014); J. Am. Soc. Nephrol. 4, 2023-2031 (1994); and Kidney Int. 40, 29-34; 10.1038/ki.1991.175 (1991).). Briefly, rats were anesthetized by isoflurane inhalation (induction at 4% and maintenance at 1.5%), and upper midline laparotomy of about 4 cm was carried out. Surgical operation was performed under a microscope, the left renal artery branch was identified, and selectively ligated with 7-0 silk at a position as close as possible to the left kidney so that macroscopic infarction is caused in about ⅔ of the left renal cortex. In the first pilot research (FIGS. 1a and 2), a high-temperature cautery pen (AA11, Bovie, Tenn., U.S.A.) was used to add the resection of the infarcted portion of the kidney. Subsequently, the right renal artery, the renal vein, and the urinary duct was ligated with 4-0 silk, and the right kidney were resected. The abdominal wall and the skin were closed with a 4-0 nylon thread. […]"}, "[2]": {"test_system": "autonomic nervous system activity", "test": "Spectral analysis of blood pressure variability (autonomic nervous system) in 5/6 nephrectomized rats", "assay_type": "in vivo, Lewis rat", "experimental": "Heart rate variability was analyzed using telemetry system software (Ponemah Ver. 6.3, Data Science International). Frequency domain analysis (sampling rate of 500 Hz; very low frequency (VLF) (0.05-0.25 Hz); low frequency (LF) (0.25-1.0 Hz); and high frequency (HF) (1.0-3.0 Hz)) was carried out using the arterial pressure waveform data of the first one minute of every five minutes (about 300 to 400 beats). In heart rate variability analysis, data recorded in the first 15 minutes was excluded, and effective data in the first one minute out of a block of every 5 minutes was used. LF and HF each reflected the sympathetic nerve component and the parasympathetic nerve component (Akselrod, S. et al. Power spectrum analysis of heart rate fluctuation: a quantitative probe of beat-to-beat cardiovascular control. Science 213, 220-222 (1981); Pagani, M. et al. Power spectral analysis of heart rate and arterial pressure variabilities as a marker of sympatho-vagal interaction in man and conscious dog. Circ. Res. 59, 178-193 (1986); and Montano, N. et al. Power spectrum analysis of heart rate variability to assess the changes in sympathovagal balance during graded orthostatic tilt. Circulation 90, 1826-1831 (1994)). LF/HF ratio and HF/(LF+HF) were each handled as indicators of sympathetic nerve activity and parasympathetic nerve activity (Heart rate variability: standards of measurement, physiological interpretation and clinical use. Task Force of the European Society of Cardiology and the North American Society of Pacing and Electrophysiology. Circulation 93, 1043-1065 (1996); and Pagani, M. et al. Relationship between spectral components of cardiovascular variabilities and direct measures of muscle sympathetic nerve activity in humans. Circulation 95, 1441-1448 (1997)).\nH2 gas (1.3% H2+21% O2+77.7 N2) and control gas (21% O2+79% N2) were filled into gas cylinders in advance at a factory. The H2 group and the control group were allowed to inhale the H2 gas and the control gas that were mixed in advance. […]"}, "[3]": {"conditions": "baseline (day 0) to 4 weeks after starting H2 inhalation, vs control 5/6 nephrectomy group"}},
  "data": [
    {"smiles": "[2H][2H]", "note": "[H2 gas, Molecular hydrogen (H2)]", "values": [
      {"measurement": "mean arterial pressure (MAP)", "setting": "[1]", "result": "94.2±10.3", "unit": "mmHg"},
      {"measurement": "decrease in HF power (normalised units), change from baseline", "setting": "[2]; [3]", "result": "significantly suppressed"},
      {"measurement": "increase in LF power (normalised units), change from baseline", "setting": "[2]; [3]", "result": "significantly suppressed"},
      {"measurement": "increase in LF power and decrease in HF power, compared as continuous variables", "setting": "[2]; over a 4-week time course, tendency to be suppressed", "result": "not significant"}
    ]}
  ]
}
